According to article PMC9127750, “Structure-based design of CDC42 effector interaction inhibitors for the treatment of cancer” (Cell reports, 2022):
Like-named read-outs stand apart in the source and are kept apart here.

What was measured:
Assay in all cases: cells
Caki-1 = conditions: Homo sapiens, CAKI-1, read-out: IC50 ARN22089
Procedure: (§1) Cancer cell line viability assay was performed using a CellTiterGlo assay. Cells were cultured in their appropriate media and seeded in white multi-well plates. For the assays, cells were incubated with compound at 37°C overnight, and a CellTiterGlo assay was performed to quantify viable cells.

PANC-1 = conditions: Homo sapiens, PANC-1, read-out: IC50 ARN22089
Procedure: as §1

HCC1569 = conditions: Homo sapiens, HCC1569, read-out: IC50 ARN22089
Procedure: as §1

SK-ES-1 = conditions: Homo sapiens, SK-ES1, read-out: IC50 ARN22089
Procedure: as §1

EPLC-272H = conditions: Homo sapiens, read-out: IC50 ARN22089
Procedure: as §1

WM3248 = conditions: Homo sapiens, WM3248, read-out: IC50 WM3248
Procedure: as §1

HCC827 = conditions: Homo sapiens, HCC827, read-out: IC50 ARN22089
Procedure: as §1

K562 = conditions: Homo sapiens, K562, read-out: IC50 ARN22089
Procedure: as §1

LOVO = conditions: Homo sapiens, read-out: IC50 ARN22089
Procedure: as §1

NCI-N87 = conditions: Homo sapiens, NCI-N87, read-out: IC50 ARN22089
Procedure: as §1

RKO = conditions: Homo sapiens, read-out: IC50 ARN22089
Procedure: as §1

MCF-7 = conditions: Homo sapiens, MCF7, read-out: IC50 ARN22089
Procedure: as §1

A172 = conditions: Homo sapiens, A 172, read-out: IC50 ARN22089
Procedure: as §1

Caki-2 = conditions: Homo sapiens, CAKI-2, read-out: IC50 ARN22089
Procedure: as §1

NCI-H1838 = conditions: Homo sapiens, NCI-H1838, read-out: IC50 ARN22089
Procedure: as §1

SK.BR-3 = conditions: Homo sapiens, SK-BR-3, read-out: IC50 ARN22089
Procedure: as §1

SK-MEL-3 = conditions: Homo sapiens, SK-MEL3, read-out: IC50 ARN22089
Procedure: as §1

SNU840 = conditions: SNU-840, read-out: IC50 ARN22089
Procedure: as §1

BT-20 = conditions: Homo sapiens, BT-20, read-out: IC50 ARN22089
Procedure: as §1

NCI-H292 = conditions: Homo sapiens, NCI-H292, read-out: IC50 ARN22089
Procedure: as §1

KARPAS 299 = conditions: Homo sapiens, KARPAS-299, read-out: IC50 ARN22089
Procedure: as §1

SKMel3 = conditions: Homo sapiens, SK-MEL3, read-out: IC50 Skmel3
Procedure: as §1

MiaPaCA2 = conditions: Homo sapiens, MIA PaCa-2, read-out: IC50 ARN22089
Procedure: as §1

SK-OV3 = conditions: Homo sapiens, SK-OV-3, read-out: IC50 ARN22089
Procedure: as §1

Colo 205 = conditions: Homo sapiens, COLO 205, read-out: IC50 ARN22089
Procedure: as §1

A2058 = conditions: Homo sapiens, A2058, read-out: IC50 ARN22089
Procedure: as §1

SJSA-1 = conditions: Homo sapiens, SJSA-1, read-out: IC50 ARN22089
Procedure: as §1

Saos-2 EC = conditions: Homo sapiens, SAOS-2, read-out: IC50 ARN22089
Procedure: as §1

H1299 = conditions: Homo sapiens, NCI-H1299, read-out: IC50 ARN22089
Procedure: as §1

SK-N-MC = conditions: Homo sapiens, read-out: IC50 ARN22089
Procedure: as §1

MDAMB231 = conditions: Homo sapiens, MDA-MB-231, read-out: IC50 ARN22089
Procedure: as §1

SK-LU-1 = conditions: Homo sapiens, SK-LU-1, read-out: IC50 ARN22089
Procedure: as §1

MV4-11 = conditions: Homo sapiens, MV4-11, read-out: IC50 ARN22089
Procedure: as §1

HEC-1-B = conditions: Homo sapiens, read-out: IC50 ARN22089
Procedure: as §1

SW480 = conditions: Homo sapiens
Procedure: as §1

LnCap = conditions: Homo sapiens, read-out: IC50 ARN22089
Procedure: as §1

DLD-1 = conditions: Homo sapiens, DLD-1, read-out: IC50 ARN22089
Procedure: as §1

SW620 = conditions: Homo sapiens, SW-620, read-out: IC50 ARN22089
Procedure: as §1

LOU-NH91 = conditions: LOU-NH91, read-out: IC50 ARN22089
Procedure: as §1

MKN-1 = conditions: Homo sapiens, MKN-1, read-out: IC50 ARN22089
Procedure: as §1

OCI-AML5 = conditions: Homo sapiens, OCI-AML-5, read-out: IC50 ARN22089
Procedure: as §1

With `CN(C)c1cccc(Nc2cc(-c3ccccc3)nc(C3CCNCC3)n2)c1` [ARN22089, N1,N1-dimethyl-N3-(6-phenyl-2-(piperidin-4-yl)pyrimidin-4-yl)benzene-1,3-diamine] the IC50 (Caki-1) was 11 µM, the IC50 (PANC-1) was 11 µM and the IC50 (HCC1569) was 11 µM. The IC50 (SK-ES-1) was 12 µM, the IC50 (EPLC-272H) was 16 µM and the IC50 (WM3248) was 4.52 µM. For the same compound, the IC50 (HCC827) was 11 µM, the IC50 (K562) was 9 µM and the IC50 (LOVO) was 7.8 µM. The IC50 (NCI-N87) was 5.7 µM, the IC50 (RKO) was 3.9 µM and the IC50 (MCF-7) was 7.3 µM. For the same compound, the IC50 (A172) was 5.8 µM, the IC50 (Caki-2) was 9.9 µM and the IC50 (NCI-H1838) was 17 µM. For the same compound, the IC50 (SK.BR-3) was 6.7 µM, the IC50 (SK-MEL-3) was 3.3 µM and the IC50 (SNU840) was 6.5 µM. For the same compound, the IC50 (BT-20) was 29 µM, the IC50 (NCI-H292) was 12 µM and the IC50 (KARPAS 299) was 11 µM. The IC50 (SKMel3) was 4.26 µM, the IC50 (MiaPaCA2) was 8.3 µM and the IC50 (SK-OV3) was 7.6 µM. The IC50 (Colo 205) was 7 µM, the IC50 (A2058) was 3.7 µM and the IC50 (SJSA-1) was 9.5 µM. For the same compound, the IC50 (Saos-2 EC) was 9 µM, the IC50 (H1299) was 11 µM and the IC50 (SK-N-MC) was 4.7 µM. The IC50 (MDAMB231) was 10 µM, the IC50 (SK-LU-1) was 7.8 µM and the IC50 (MV4-11) was 4.4 µM. It also gave an IC50 (HEC-1-B) of 18 µM, an IC50 (SW480; SW480, read-out: IC50 ARN22089) of 3.4 µM and an IC50 (SW480; SW480, read-out: IC50 SW480) of 8.61 µM. The IC50 (LnCap) was 14 µM, the IC50 (DLD-1) was 5 µM and the IC50 (SW620) was 5.9 µM. For the same compound, the IC50 (LOU-NH91) was 29 µM, the IC50 (MKN-1) was 12 µM and the IC50 (OCI-AML5) was 15 µM.
